Results: PMC8224398, “SARS-CoV-2 mutations in MHC-I-restricted epitopes evade CD8^+ T cell responses” (Science Immunology, 2021)

Columns and labels:
HLA-A*02:01 = HLA-A*02:01 (Homo sapiens, UniProt P04439, D140Y/D185E/D98H/E176V/E277Q/G131W/G231S/I119V/I121R/I166T/I218V/L300P/L318F/N151K/N90K/P208A/P217A/Q86G/Q94H/R138H/R169H/T345S); format: binding
HLA-B*40:01 = HLA-B*40:01 (Homo sapiens, UniProt P01889, A65T/A93T/A95T/D138N/D98Y/E176V/E69K/N87E/Q56L/Q94N/R180L/S121R/S35A/S48T/T167S/V36M/W171L/Y33H/Y91S); format: binding
[1] = tested on: autologous EBV+ B cells pulsed with peptide; format: cell-based, human; details: 5 h at 37°C

Sequence | binding to HLA-A*02:01 (thermal stability of the peptide-MHC-I complex, DSF) (HLA-A*02:01) | binding to recombinant HLA-B*40:01 (DSF) (HLA-B*40:01) | killing of EBV+ B cells pulsed with the peptide by wild type YLQ expanded PBMCs [1] | killing of peptide-pulsed EBV+ B cells by PBMCs expanded with the peptide [1]
LALLLLDRL | did neither observe binding |  |  | 
LFFNKVTLA | non-binder |  |  | 
LQLPQGTTL | did neither observe binding |  |  | 
MEVTPSGTWL | not to HLA-A*02:01 | specific binding |  | 
YFQPRTFLL [YLQ mutant] | weak binder |  | failed to kill | failed to kill both wild type and mutant peptide pulsed EBV^+ B cells
YLQPRTFLL [YLQ wildtype] |  |  | specific killing | 
